According to US20200163984A1, “USE OF ISOVALERYL SPIRAMYCIN I, II AND/OR III IN MANUFACTURING MEDICAMENT FOR TREATING AND/OR PREVENTING TUMOR, AND MEDICAMENT” (SHENYANG FUYANG PHARMACEUTICAL TECHNOLOGY CO., LTD., priority 2017, published 2020):
Like-named read-outs stand apart in the source and are kept apart here.

Legend:
[1] = system: transplanted tumor of human non-small cell lung cancer cell A549; assay: A549 transplanted tumor in nude mice; settings: for Tumor Volume (mm3) (d 1): d1
Description: A549 cells in a logarithmic growth phase were taken and subjected to a trypan blue exclusion experiment showing that the cell viability was more than 95%, then the cells were subjected to trypsinization, centrifugation, and supernatant removal. Then cell concentration was adjusted to 1×10^7/ml with matrigel, then each nude mouse was inoculated subcutaneously with 0.2 ml of cells at its right armpit and recorded as the first day of inoculation. When the tumor grows to be greater than or equal to 100 mm^3, the mice were randomly divided into 11 groups with 6 mice in each group: a model group, a cyclophosphamide group, isovaleryl spiramycin I groups with doses of 25, 50 and 100 mg/kg, isovaleryl spiramycin II groups with doses of 25, 50 and 100 mg/kg, and isovaleryl spiramycin III groups with doses of 25, 50 and 100 mg/kg. Each group was continuously administered intragastrically for 30 days with a dose of 20 ml/kg. The mice were sacrificed the next day after drug withdrawal and the indicators were tested. The long diameter and short diameter of the tumor, and the body weight of each mouse were recorded every 3 days from drug administration to nude mouse sacrifice.
(§1) The body weight of the nude mice and the long diameter (a) and short diameter (b) of the transplanted tumor were measured every 3 days, and the tumor volume (v), relative tumor volume (RTV) and relative tumor proliferation rate (T/C) are calculated respectively according to the following formulas, wherein V=a×b^2/2; RTV=V/V0 (V0 is the tumor volume before administration, V is the tumor volume before sacrifice), and T/C (%)=treatment group RTV/model control group RTV×100%.
(§2) Each mouse was weighed and sacrificed. After the tumor was completely stripped off from the body of the mouse, the non-tumor tissues such as blood stains and fat were removed to weigh the tumor and calculate the tumor growth inhibition rate. The average tumor weight of each group of mice is used as an indicator of efficacy. Tumor growth inhibition rate (%)=(1−the average tumor weight of the treatment group/the average tumor weight of the model group)×100%.

[2] = system: transplanted tumor of human glioblastoma cell A172; settings: for Tumor Volume (mm3) (d 1): d1
Description: Then cell concentration was adjusted to 1×10^7/ml with matrigel, then each nude mouse was inoculated subcutaneously with 0.2 ml of cells at its right armpit and recorded as the first day of inoculation. When the tumor grows to be greater than or equal to 100 mm^3, the mice were randomly divided into 11 groups with 6 mice in each group: a model group, a temozolomide group, […], […], […] Each group was continuously administered intragastrically for 30 days with a dose of 20 ml/kg. The mice were sacrificed the next day after drug withdrawal and the indicators were tested. The long diameter and short diameter of the tumor, and the body weight of each mouse were recorded every 3 days from drug administration to nude mouse sacrifice.
as §1, §2

[3] = A549, high dose (100 mg/kg in method) i.g. 30 days
[4] = A549, low dose (25 mg/kg in method) i.g. 30 days
[5] = A549, medium dose (50 mg/kg in method) i.g. 30 days
[6] = A172, high dose (100 mg/kg in method) i.g. 30 days
[7] = A172, low dose (25 mg/kg in method) i.g. 30 days
[8] = A172, medium dose (50 mg/kg in method) i.g. 30 days

Compound: CCC(=O)O[C@@H]1CC(=O)O[C@H](C)C/C=C/C=C/[C@H](O[C@H]2CC[C@H](N(C)C)[C@@H](C)O2)[C@H](C)C[C@H](CC=O)[C@H](O[C@@H]2O[C@H](C)[C@@H](O[C@H]3C[C@@](C)(O)[C@@H](OC(=O)CC(C)C)[C@H](C)O3)[C@H](N(C)C)[C@H]2O)[C@H]1OC [Isovaleryl spiramycin III, isovaleryl spiramycin III]
- Relative Tumor Proliferation Rate (T/C) [1, 3]: 33.04%
- tumor growth inhibition rate [1, 3]: 66.53%
- Relative Tumor Proliferation Rate (T/C) [1, 4]: 65.93%
- tumor growth inhibition rate [1, 4]: 37.99%
- tumor volume and relative tumor volume compared with the model group ([1]; A549, low, medium and high doses, P<0.05): significantly lower
- Relative Tumor Proliferation Rate (T/C) [1, 5]: 47.25%
- tumor growth inhibition rate [1, 5]: 55.95%
- Inhibition Rate (%) ([1]; A549 nude mice, 25 mg/kg): 37.99%
- Relative Tumor Proliferation Rate (T/C) ([1]; A549 nude mice, 25 mg/kg): 65.93%
- Relative Tumor Volume (RTV) ([1]; A549 nude mice, 25 mg/kg): 10.70 ± 2.64
- Tumor Weight ([1]; A549 nude mice, 25 mg/kg): 1.49 ± 0.42 g
- Tumor Volume (mm3) (d 1) ([1]; A549 nude mice, 25 mg/kg): 113.96 ± 6.85 mm3
- Tumor Volume (mm3) (d30) ([1]; A549 nude mice, 25 mg/kg): 1216.86 ± 295.20 mm3
- Inhibition Rate (%) ([1]; A549 nude mice, 50 mg/kg): 55.95%
- Relative Tumor Proliferation Rate (T/C) ([1]; A549 nude mice, 50 mg/kg): 47.25%
- Relative Tumor Volume (RTV) ([1]; A549 nude mice, 50 mg/kg): 7.67 ± 2.86
- Tumor Weight ([1]; A549 nude mice, 50 mg/kg): 1.06 ± 0.49 g
- Tumor Volume (mm3) (d 1) ([1]; A549 nude mice, 50 mg/kg): 113.65 ± 11.57 mm3
- Tumor Volume (mm3) (d30) ([1]; A549 nude mice, 50 mg/kg): 856.65 ± 281.96 mm3
- Inhibition Rate (%) ([1]; A549 nude mice, 100 mg/kg): 66.53%
- Relative Tumor Proliferation Rate (T/C) ([1]; A549 nude mice, 100 mg/kg): 33.04%
- Relative Tumor Volume (RTV) ([1]; A549 nude mice, 100 mg/kg): 5.36 ± 3.01
- Tumor Weight ([1]; A549 nude mice, 100 mg/kg): 0.80 ± 0.43 g
- Tumor Volume (mm3) (d 1) ([1]; A549 nude mice, 100 mg/kg): 118.69 ± 8.13 mm3
- Tumor Volume (mm3) (d30) ([1]; A549 nude mice, 100 mg/kg): 632.73 ± 350.89 mm3
- mouse weight compared with the model group ([1]; mouse, in vivo): no significant changes
- Body Weight (g) (d1) ([1]; mouse, in vivo, 25 mg/kg): 21.68 ± 1.25 g
- Body Weight (g) (d30) ([1]; mouse, in vivo, 25 mg/kg): 23.97 ± 1.01 g
- Body Weight (g) (d1) ([1]; mouse, in vivo, 50 mg/kg): 21.99 ± 1.40 g
- Body Weight (g) (d30) ([1]; mouse, in vivo, 50 mg/kg): 24.36 ± 1.73 g
- Body Weight (g) (d1) ([1]; mouse, in vivo, 100 mg/kg): 20.57 ± 2.28 g
- Body Weight (g) (d30) ([1]; mouse, in vivo, 100 mg/kg): 23.53 ± 1.63 g
- Relative Tumor Proliferation Rate (T/C) [2, 6]: 40.08%
- tumor growth inhibition rate [2, 6]: 59.19%
- Relative Tumor Proliferation Rate (T/C) [2, 7]: 66.45%
- tumor growth inhibition rate [2, 7]: 15.35%
- tumor volume and relative tumor volume compared with the model group ([2]; A172, low, medium and high doses, P<0.05): significantly lower
- Relative Tumor Proliferation Rate (T/C) [2, 8]: 52.89%
- tumor growth inhibition rate [2, 8]: 32.54%
- Inhibition Rate (%) ([2]; A172 nude mice, 12.5 mg/kg): 15.35%
- Relative Tumor Proliferation Rate (T/C) ([2]; A172 nude mice, 12.5 mg/kg): 66.45%
- Relative Tumor Volume (RTV) ([2]; A172 nude mice, 12.5 mg/kg): 13.47 ± 1.67
- Tumor Weight ([2]; A172 nude mice, 12.5 mg/kg): 1.18 ± 0.11 g
- Tumor Volume (mm3) (d 1) ([2]; A172 nude mice, 12.5 mg/kg): 121.75 ± 9.98 mm3
- Tumor Volume (mm3) (d30) ([2]; A172 nude mice, 12.5 mg/kg): 1305.51 ± 212.02 mm3
- Inhibition Rate (%) ([2]; A172 nude mice, 25 mg/kg): 32.54%
- Relative Tumor Proliferation Rate (T/C) ([2]; A172 nude mice, 25 mg/kg): 52.89%
- Relative Tumor Volume (RTV) ([2]; A172 nude mice, 25 mg/kg): 12.63 ± 1.27
- Tumor Weight ([2]; A172 nude mice, 25 mg/kg): 0.94 ± 0.12 g
- Tumor Volume (mm3) (d 1) ([2]; A172 nude mice, 25 mg/kg): 118.81 ± 8.97 mm3
- Tumor Volume (mm3) (d30) ([2]; A172 nude mice, 25 mg/kg): 1047.77 ± 165.77 mm3
- Inhibition Rate (%) ([2]; A172 nude mice, 50 mg/kg): 59.19%
- Relative Tumor Proliferation Rate (T/C) ([2]; A172 nude mice, 50 mg/kg): 40.08%
- Relative Tumor Volume (RTV) ([2]; A172 nude mice, 50 mg/kg): 10.96 ± 0.82
- Tumor Weight ([2]; A172 nude mice, 50 mg/kg): 0.57 ± 0.05 g
- Tumor Volume (mm3) (d 1) ([2]; A172 nude mice, 50 mg/kg): 118.44 ± 6.21 mm3
- Tumor Volume (mm3) (d30) ([2]; A172 nude mice, 50 mg/kg): 795.73 ± 174.84 mm3
- mouse weight compared with the model group ([2]; mouse, in vivo): no significant changes
- Body Weight (g) (d1) ([2]; mouse, in vivo, 12.5 mg/kg): 21.54 ± 0.36 g
- Body Weight (g) (d30) ([2]; mouse, in vivo, 12.5 mg/kg): 20.64 ± 0.54 g
- Body Weight (g) (d1) ([2]; mouse, in vivo, 25 mg/kg): 20.98 ± 0.47 g
- Body Weight (g) (d30) ([2]; mouse, in vivo, 25 mg/kg): 21.54 ± 0.72 g
- Body Weight (g) (d1) ([2]; mouse, in vivo, 50 mg/kg): 21.59 ± 0.32 g
- Body Weight (g) (d30) ([2]; mouse, in vivo, 50 mg/kg): 20.67 ± 0.56 g
